Assay in all cases: DTP human tumour cell line panel, 48 h
Assay [1] concerns A498 renal.
In assay [2] the test system is EKVX NSCLC.
The subject of assay [3] is HCC-2998 colon.
Assay [4] has as its system IGROV1 ovarian.
Assay [5] has as its system K-562 leukemia.
Assay [6] deals with NCI-H460 lung.
For assay [7], the system named is OVCAR-3 ovarian.
In assay [8] the test system is OVCAR-8 ovarian.
For assay [9], the system named is SF-268 CNS.
Assay [10] deals with UACC-62 melanoma.

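Five concentrations, 48 hours, 96-well plates. GI50 marks 50% less growth. TGI is the concentration that stops growth completely.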 A value given as a limit tells only on which side of the number the result lay.

Take `CC[C@H](C)c1occ2c(O)c(C(=O)O)c(=O)cc-2c1C`: the TGI (usually the concentration giving total growth inhibition) in assay [1] is 93.5 µM; in assay [2] it was above 100 µM; in [3], 36.8 µM; in [4], 37.2 µM; in [5], above 100 µM; in assay [6], 60.6 µM. The concentration for total growth inhibition (TGI) in [7] was 42.4 µM; in [8], 41.4 µM; in assay [9], above 100 µM; in assay [10] it was 37.4 µM.
As for `CCCCCCN(CCCCCC)C(=N)c1ccnc2ccccc12`, the GI50 (as a rule, the concentration giving 50% growth inhibition) in assay [1] was 3.07 µM; in [2], 8.58 µM; in assay [3] it was 1.78 µM; in [4], 2.83 µM; in assay [5] it was 2.37 µM; in assay [6], 2.59 µM. Also, the GI50 in [7] was 10.3 µM; in assay [8], 10.4 µM; in assay [9], 13 µM; in [10], 4.88 µM. The TGI came to 16.6 µM in assay [1]; 22.9 µM in [2]; 3.54 µM in assay [3]; 13.4 µM in assay [4]; 8.35 µM in assay [5]; 12.7 µM in assay [6]. Further, the TGI amounted to 22.4 µM in assay [7], 24.1 µM in assay [8], 26.5 µM in assay [9] and 19.6 µM in assay [10].
`COc1cccc(-c2nn(-c3ccccc3)cc2-c2ccnc(NCCNS(=O)(=O)c3ccc(C(F)(F)F)cc3)c2)c1`: the GI50 in assay [1] was 1.66 µM; in [2], 3.16 µM; in assay [3], 3.36 µM; in assay [4], 4.19 µM; in assay [5], 2.87 µM; in assay [6], 3.47 µM. Also, the GI50 is 2.59 µM in [7], 4.07 µM in [8], 3.54 µM in [9] and 3.22 µM in assay [10]. For the same compound, the TGI in assay [1] is 6.5 µM; in assay [2], above 100 µM; in assay [3], 24.8 µM; in assay [4] it was above 100 µM; in assay [5] it was 19.4 µM; in assay [6], above 100 µM. The TGI is 7.3 µM in assay [7], 46.2 µM in [8], above 100 µM in assay [9] and 35 µM in assay [10].
Turning to `COc1ccc2cc(C(=O)c3ccccc3C(=O)O)ccc2c1`, the concentration for total growth inhibition (TGI) in assay [1], in assay [2], in assay [3], in assay [4], in assay [5] and in assay [6] was above 100 µM in each case. Also, the concentration for total growth inhibition (TGI) in [7], in [8], in assay [9] and in [10] was above 100 µM throughout.
Turning to `O=c1c(O)c(-c2ccc(O)c(O)c2)oc2cc(O)ccc12`, the TGI is 62.3 µM in [1]; 65.8 µM in [2]; 41.9 µM in assay [3]; above 62.8 µM in assay [4]; above 100 µM in assay [5]; 29.2 µM in [6]. In addition, the TGI in assay [7] is 62 µM; in assay [8] it was 56.3 µM; in [9], above 74.1 µM; in [10] it was 39.5 µM.
As for `CON(C)C(=O)C(Cc1ccccc1)NC(=O)OC(C)(C)C` (stereo not given), the TGI in assay [1], in assay [2], in [3], in assay [4], in [5] and in assay [6] was above 100 µM each time. The TGI in [7], in assay [8], in [9] and in assay [10] was above 100 µM throughout.
For `COc1ccc(C(=S)c2cc(OC)c(OC)c(OC)c2)cc1OC(=O)CCl`, the GI50 is 0.179 µM in [1]; 0.652 µM in [2]; 0.0418 µM in [3]; 0.0499 µM in [4]; below 0.01 µM in [5]; 0.0301 µM in [6]. The GI50 was 0.0227 µM in assay [7], 0.0355 µM in [8], 0.054 µM in assay [9] and 0.0391 µM in assay [10]. The TGI in [1] was 2.5 µM; in [2], above 100 µM; in [3] it was above 100 µM; in [4], above 100 µM; in assay [5], above 100 µM; in assay [6], 12.9 µM. Moreover, the TGI was 0.0813 µM in assay [7], above 100 µM in [8], above 100 µM in [9] and above 100 µM in assay [10].
`O=C(OC(C(=O)O)C(OC(=O)c1ccccc1)C(=O)O)c1ccccc1` (stereo not given) (tested in a mixture with another compound): the TGI in assay [1], in assay [2], in [3], in [4], in [5] and in assay [6] was above 100 µM throughout. Moreover, the TGI in assay [7] is above 69.1 µM; in assay [8], above 100 µM; in assay [9], above 100 µM; in assay [10] it was above 100 µM.
In the case of `CCN(Cc1ccc(F)cc1)c1ccc(CO)c(Cl)c1`, the GI50 was 0.019 µM in [1]; 17.5 µM in assay [2]; 10.3 µM in assay [3]; 0.0776 µM in assay [4]; 1.57 µM in assay [5]; 0.213 µM in assay [6]. Moreover, the GI50 was 0.704 µM in [7], 9.24 µM in [8], 19.8 µM in assay [9] and 0.0693 µM in assay [10]. Also, the TGI in [1] is 0.0936 µM; in assay [2] it was 57.5 µM; in assay [3] it was 28.3 µM; in [4], 0.605 µM; in [5] it was above 100 µM; in assay [6] it was 11.7 µM. The TGI in assay [7] was 6.18 µM; in assay [8], 43.5 µM; in assay [9], above 55.7 µM; in [10], 0.522 µM.

For the origin of these results see PubChem BioAssay (NCI).
